# Test results published in patent US20220396569A1 (Carmot Therapeutics, Inc., priority 2021, published 2022).
# Biological target: T1, human GLP-1 receptor (Homo sapiens, UniProt P43220)
# T1 construct: expressed in transfected cells
# Assay: GLP-1R cAMP Assay (HitHunter cAMP accumulation)
# Type: cell-based
# Conditions: cAMP accumulation, CHO cells stably overexpressing human GLP-1 receptor, 30 min treatment; read-out: EC50
# How it was run: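 CHO cells stably expressing human GLP-1R, 10,000 cells/well in HBSS with 10 mM HEPES and 625 μM IBMX, were mixed with anti-cAMP antibody reagent. Compound was applied as a 20-point dose response in triplicate for 30 min. After lysis and overnight detection, luminescence was read and dose-response curves analysed.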
# T1 sequence (P43220 24-463): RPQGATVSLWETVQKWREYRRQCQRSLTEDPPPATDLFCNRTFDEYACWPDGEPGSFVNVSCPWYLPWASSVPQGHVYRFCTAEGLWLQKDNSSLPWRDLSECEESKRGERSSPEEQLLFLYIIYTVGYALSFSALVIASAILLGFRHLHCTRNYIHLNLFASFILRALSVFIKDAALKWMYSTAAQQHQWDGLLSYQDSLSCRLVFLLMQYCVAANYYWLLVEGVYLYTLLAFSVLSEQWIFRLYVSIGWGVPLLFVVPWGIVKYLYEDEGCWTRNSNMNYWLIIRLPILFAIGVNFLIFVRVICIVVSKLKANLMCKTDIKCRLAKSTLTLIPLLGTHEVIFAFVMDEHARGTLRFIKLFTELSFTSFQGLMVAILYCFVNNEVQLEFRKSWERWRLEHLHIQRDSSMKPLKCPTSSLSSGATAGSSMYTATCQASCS
row,Structure (SMILES),EC50 [nM]
1,"N#Cc1ccc(OCc2cccc([C@H]3CCN(Cc4nc5c(F)cc(C(=O)O)cc5n4C[C@@H]4CCO4)C3)c2)c(F)c1 [Compound 444, 2-{[(3R)-3-{3-[(4-cyano-2-fluorophenoxy)methyl]phenyl}pyrrolidin-1-yl]methyl}-4-fluoro-1-{[(2S)-oxetan-2-yl]methyl}-1H-1,3-benzodiazole-6-carboxylic acid]",> 500
2,"CC1(c2ccc(Cl)cn2)Oc2cccc(CC3CCN(Cc4nc5ccc(C(=O)O)cc5n4C[C@@H]4CCO4)CC3)c2O1 (stereo partly drawn) [Example 173, 2-((4-((2-(5-Chloropyridin-2-yl)-2-methylbenzo[d][1,3]dioxol-4-yl)methyl)piperidin-1-yl)methyl)-1-(((S)-oxetan-2-yl)methyl)-1H-benzo[d]imidazole-6-carboxylic acid]",50 to 500
3,"N#CCC1(Cn2c(CN3CC[C@H](c4ccnc(COc5ccc(Cl)cc5F)c4)C3)nc3ccc(C(=O)O)cc32)CC1 [Compound 433, 2-{[(3R)-3-{2-[(4-chloro-2-fluorophenoxy)methyl]pyridin-4-yl}pyrrolidin-1-yl]methyl}-1-{[1-(cyanomethyl)cyclopropyl]methyl}-1H-1,3-benzodiazole-6-carboxylic acid]",50 to 500
4,"N#Cc1ccc(OCc2cccc([C@@H]3CCN(Cc4nc5ccc(C(=O)O)cc5n4C[C@@H]4CCO4)C3)c2)c(F)c1 [Compound 414, 2-{[(3S)-3-{3-[(4-cyano-2-fluorophenoxy)methyl]phenyl}pyrrolidin-1-yl]methyl}-1-{[(2S)-oxetan-2-yl]methyl}-1H-1,3-benzodiazole-6-carboxylic acid]",< 50
5,"CCn1cncc1Cn1c(CN2CC(Cc3cccc4c3OC(C)(c3ccc(Cl)cn3)O4)C2)nc2ccc(C(=O)O)cc21 (stereo not shown) [Compound 185, 2-[(3-{[2-(5-chloropyridin-2-yl)-2-methyl-2H-1,3-benzodioxol-4-yl]methyl}azetidin-1-yl)methyl]-1-[(1-ethyl-1H-imidazol-5-yl)methyl]-1H-1,3-benzodiazole-6-carboxylic acid]",50 to 500
6,"CC1(c2ccc(Cl)cc2F)Oc2cccc(CC3CCN(Cc4nc5ccc(C(=O)O)cc5n4C[C@@H]4CCO4)CC3)c2O1 (stereo partly drawn) [Example 201, 2-((4-((2-(4-Chloro-2-fluorophenyl)-2-methylbenzo[d][1,3]dioxol-4-yl)methyl)piperidin-1-yl)methyl)-1-(((S)-oxetan-2-yl)methyl)-1H-benzo[d]imidazole-6-carboxylic acid]",50 to 500
7,"O=C(O)c1ccc2nc(CN3CC[C@H](c4cccc(COc5ccc(Cl)cc5Cl)c4)C3)n(C[C@@H]3CCO3)c2c1 (single isomer, unassigned) [Example 406]",< 50
8,"C[C@H]1[C@@H](Oc2ccnc(COc3ccc(C#N)cc3F)n2)CN1Cc1nc2ccc(C(=O)O)cc2n1C[C@@H]1CCO1 [Compound 545, 2-{[(2S,3S)-3-({2-[(4-cyano-2-fluorophenoxy)methyl]pyrimidin-4-yl}oxy)-2-methylazetidin-1-yl]methyl}-1-{[(2S)-oxetan-2-yl]methyl}-1H-1,3-benzodiazole-6-carboxylic acid]",< 50
9,"CCn1cncc1Cn1c(Cc2ccc(Oc3ccnc(COc4ccc(Cl)cc4F)c3)cc2F)nc2ccc(C(=O)O)cc21 [Compound 462, 2-{[4-({2-[(4-chloro-2-fluorophenoxy)methyl]pyridin-4-yl}oxy)-2-fluorophenyl]methyl}-1-[(1-ethyl-1H-imidazol-5-yl)methyl]-1H-1,3-benzodiazole-6-carboxylic acid]",< 50
10,"O=C(O)c1ccc2nc(CN3CCC(c4cccc(COc5ccc(Cl)cc5Cl)n4)C3)n(C[C@@H]3CCO3)c2c1 (stereo partly drawn) [Example 386, 2-((3-(6-((2,4-Dichlorophenoxy)methyl)pyridin-2-yl)pyrrolidin-1-yl)methyl)-1-(((S)-oxetan-2-yl)methyl)-1H-benzo[d]imidazole-6-carboxylic acid]",< 50
11,"CCn1cncc1Cn1c(CN2CC[C@H](Oc3ccnc(COc4ccc(Cl)cc4Cl)c3)C2)nc2ccc(C(=O)O)cc21 [Example 244, (S)-2-((3-((2-((2,4-Dichlorophenoxy)methyl)pyridin-4-yl)oxy)pyrrolidin-1-yl)methyl)-1-((1-ethyl-1H-imidazol-5-yl)methyl)-1H-benzo[d]imidazole-6-carboxylic acid]",< 50
12,"O=C(O)c1ccc2nc(CN3CC=C(c4ccc(F)c(COc5ccc(Cl)cc5Cl)c4)C3)n(Cc3cnco3)c2c1 [Compound 387, 2-[(3-{3-[(2,4-dichlorophenoxy)methyl]-4-fluorophenyl}-2,5-dihydro-1H-pyrrol-1-yl)methyl]-1-[(1,3-oxazol-5-yl)methyl]-1H-1,3-benzodiazole-6-carboxylic acid]",< 50
13,O=C(O)c1ccc2nc(CN3CC=C(c4cc(COc5ccc(Cl)cc5F)ccn4)C3)n(C[C@@H]3CCO3)c2c1 [Compound 393],50 to 500
14,"O=C(O)c1ccc2nc(CN3CC=C(c4cccc(COc5ccc(Cl)cc5Cl)n4)C3)n(C[C@@H]3CCO3)c2c1 [Example 384, (S)-2-((3-(6-((2,4-Dichlorophenoxy)methyl)pyridin-2-yl)-2,5-dihydro-1H-pyrrol-1-yl)methyl)-1-(oxetan-2-ylmethyl)-1H-benzo[d]imidazole-6-carboxylic acid]",< 50
15,"O=C(O)c1ccc2nc(CN3CC(Cc4ccnc(COc5ccc(Cl)cc5Cl)c4)C3)n(C[C@@H]3CCO3)c2c1 [Example 177, (S)-2-((3-((2-((2,4-Dichlorophenoxy)methyl)pyridin-4-yl)methyl)azetidin-1-yl)methyl)-1-(oxetan-2-ylmethyl)-1H-benzo[d]imidazole-6-carboxylic acid]",< 50
16,"O=C(O)c1cc(F)c2nc(CN3CC[C@@H](c4ccc(F)c(COc5ccc(Cl)cc5F)n4)C3)n(C[C@@H]3CCO3)c2c1 [Compound 453, 2-{[(3R)-3-{6-[(4-chloro-2-fluorophenoxy)methyl]-5-fluoropyridin-2-yl}pyrrolidin-1-yl]methyl}-4-fluoro-1-{[(2S)-oxetan-2-yl]methyl}-1H-1,3-benzodiazole-6-carboxylic acid]",< 50
17,"O=C(O)c1cc(F)c2nc(CN3CC[C@H](c4cccc(COc5ccc(Cl)cc5F)n4)C3)n(C[C@@H]3CCO3)c2c1 [Compound 442, 2-{[(3S)-3-{6-[(4-chloro-2-fluorophenoxy)methyl]pyridin-2-yl}pyrrolidin-1-yl]methyl}-4-fluoro-1-{[(2S)-oxetan-2-yl]methyl}-1H-1,3-benzodiazole-6-carboxylic acid]",< 50
18,"CCn1cncc1Cn1c(CN2C[C@H](Oc3ccnc(COc4ccc(Cl)cc4Cl)c3)[C@@H]2C)nc2ccc(C(=O)O)cc21 [Compound 273, 2-{[(2S,3S)-3-({2-[(2,4-dichlorophenoxy)methyl]pyridin-4-yl}oxy)-2-methylazetidin-1-yl]methyl}-1-[(1-ethyl-1H-imidazol-5-yl)methyl]-1H-1,3-benzodiazole-6-carboxylic acid]",< 50

# Now from value to compound:
row,EC50 [nM],Structure (SMILES)
1,< 50,"O=C(O)c1ccc2nc(CN3CC=C(c4nccc(COc5ccc(Cl)cc5F)n4)C3)n(C[C@@H]3CCO3)c2c1 [Example 435, (S)-2-((3-(4-((4-Chloro-2-fluorophenoxy)methyl)pyrimidin-2-yl)-2,5-dihydro-1H-pyrrol-1-yl)methyl)-1-(oxetan-2-ylmethyl)-1H-benzo[d]imidazole-6-carboxylic acid]"
2,< 50,O=C(O)c1ccc2nc(CN3CC(Cc4ccnc(COc5ccc(Cl)cc5Cl)c4)C3)n(C[C@H]3CCOC3)c2c1 [Compound 180]
3,< 50,O=C(O)c1ccc2nc(CN3CC=C(c4ccnc(COc5ccc(Cl)cc5Cl)c4)C3)n(Cc3ncco3)c2c1 [Compound 392]
4,< 50,"CCn1cncc1Cn1c(CN2CCC(Cn3ccc(COc4ccc(Cl)cc4C#N)n3)CC2)nc2ccc(C(=O)O)cc21 [Compound 282, 2-{[4-({3-[(4-chloro-2-cyanophenoxy)methyl]-1H-pyrazol-1-yl}methyl)piperidin-1-yl]methyl}-1-[(1-ethyl-1H-imidazol-5-yl)methyl]-1H-1,3-benzodiazole-6-carboxylic acid]"
5,< 50,"N#Cc1ccc(OCc2nc(N3CC[C@@H](Cc4nc5ccc(C(=O)O)cc5n4C[C@@H]4CCO4)C3)ccc2F)c(F)c1 [Compound 533, 2-(((S)-1-(6-((4-Cyano-2-fluorophenoxy)methyl)-5-fluoropyridin-2-yl)pyrrolidin-3-yl)methyl)-1-(((S)-oxetan-2-yl)methyl)-1H-benzo[d]imidazole-6-carboxylic acid]"
6,< 50,"O=C(O)c1ccc2nc(CN3CC[C@H](Oc4ccnc(COc5ccc(Cl)cc5F)n4)C3)n(C[C@@H]3CCO3)c2c1 [Example 360, 2-(((S)-3-((2-((4-Chloro-2-fluorophenoxy)methyl)pyrimidin-4-yl)oxy)pyrrolidin-1-yl)methyl)-1-(((S)-oxetan-2-yl)methyl)-1H-benzo[d]imidazole-6-carboxylic acid]"
7,< 50,O=C(O)c1ccc2nc(CN3CC(Cc4cnc(COc5ccc(Cl)cc5Cl)o4)C3)n(C[C@@H]3CCO3)c2c1 [Compound 191]
8,< 50,"O=C(O)c1cc(F)c2nc(Cc3ccc(Oc4ccnc(COc5ccc(Cl)cc5F)c4)c(F)c3)n(C[C@@H]3CCO3)c2c1 [Example 471, (S)-2-(4-((2-((4-Chloro-2-fluorophenoxy)methyl)pyridin-4-yl)oxy)-3-fluorobenzyl)-4-fluoro-1-(oxetan-2-ylmethyl)-1H-benzo[d]imidazole-6-carboxylic acid]"
9,< 50,"O=C(O)c1cc(F)c2nc(CN3CC[C@H](Oc4cccc(COc5ccc(Cl)cc5F)c4)C3)n(C[C@@H]3CCO3)c2c1 [Compound 351, 2-{[(3S)-3-{3-[(4-chloro-2-fluorophenoxy)methyl]phenoxy}pyrrolidin-1-yl]methyl}-4-fluoro-1-{[(2S)-oxetan-2-yl]methyl}-1H-1,3-benzodiazole-6-carboxylic acid]"
10,< 50,"O=C(O)c1ccc2nc(CN3CC=C(c4cc(COc5ccc(Cl)cc5F)ccc4F)C3)n(C[C@@H]3CCO3)c2c1 [Compound 417, 2-[(3-{5-[(4-chloro-2-fluorophenoxy)methyl]-2-fluorophenyl}-2,5-dihydro-1H-pyrrol-1-yl)methyl]-1-{[(2S)-oxetan-2-yl]methyl}-1H-1,3-benzodiazole-6-carboxylic acid]"
